Results: paper PMC9495681, “Examining Topoisomers of a Snake-Venom-Derived Peptide for Improved Antimicrobial and Antitumoral Properties” (Biomedicines, 2022)
≈ marks a conversion by molar mass, not a printed value. Square brackets hold non-standard residues; d marks the D form. Peptide text beside a SMILES is read from it.

What was measured:
[1] = system: 1BR3G human fibroblasts; experiment: Peptide cytotoxicity (Cell Titer Blue viability); format: cell-based; settings: 24 h treatment, medium with 2% FBS, Cell Titer Blue fluorescence, triplicate
Excerpt: Human HeLa S3 (cervix epithelial carcinoma), leukemia Jurkat E6.1 (T-cell lineage), U937 (histiocytic lymphoma), THP-1 (acute monocytic leukemia), and 1BR3G human fibroblasts were obtained from the Cell Lines Repository of the Institut Municipal d’Investigació Medica (Barcelona, Spain). BxPC3 (pancreas adenocarcinoma), A549 (lung carcinoma), SH-Sy5Y (neuroblastoma), Panc1 (epithelioid carcinoma), 786-O (renal cell adenocarcinoma), and HT29 (colorectal adenocarcinoma) were obtained from the Integrative Biomedical Materials and Nanomedicine lab at UPF (Barcelona, Spain). HeLa S3, Jurkat E6.1, U937, THP-1, Panc1, and 786-O were cultured in Roswell Park Memorial Institute medium (RPMI) supplemented with 10% fetal bovine serum (FBS) and 1% penicillin/streptomycin solution and maintained at 37 °C in a humidified atmosphere with 5% of CO2. 1BR3G, BxPC3, A549, and HT29 were cultured in Dulbecco’s Modified Eagle’s Medium (DMEM) supplemented with 10% FBS and 1% penicillin/streptomycin solution and maintained at 37 °C in a humidified atmosphere with 5% of CO2. SH-Sy5Y was cultured in DMEM supplemented with 15% FBS and 1% penicillin/streptomycin and maintained at 37 °C in a humidified atmosphere with 5% of CO2. Cultures were maintained at 10^5–10^6 cell/mL densities. For 1BR3G human fibroblasts, BxPC3, A549, SH-Sy5Y, Panc1, 786-O, and HT29 were split every time they reached 80–90% of confluence after harvesting with PBS and trypsin.
About 60,000 cells were added to different microfuge tubes containing 2-fold serial dilution of the peptide, with a final concentration in the range between 0.1–100 μM in RPMI containing 2% of FBS. After 30 min incubation at 37 °C and 5% of CO2, […] of medium containing approximately 10,000 treated cells were transferred to a 96-well plate. Then, 15 μL of Cell Titer Blue dye (Promega, Madison, WI, USA) was added, and plates were reincubated for 24 h. Fluorescence was read at 4 and 24 h after dye addition in a Synergy HTX (BioTek, Winooski, VT, USA) reader, with λexc = 560 nm and λem = 620 nm. In the case of adherent cultures, 5000 cells/well were seeded in 96-well plates. After 24 h incubation at 37 °C and 5% of CO2, the medium was removed, and a new medium with 2% of FBS containing the various 2-fold dilution of the peptides was added. After a further 30 min, 15 μL of Cell Titer Blue dye was added to each well, and the measurement was done as above. Relative viability was calculated relative to a cell with only 2% FBS in the corresponding medium as a control (100% viability). All assays were conducted in triplicate.

[2] = Serum stability; format: in vitro ADME; settings: 0.5 mL each of human serum (Sigma-Aldrich) and peptide (1 mM in water), 37 °C with stirring, trichloroacetic acid treatment, HPLC / LC-MS; for remaining at 24 h, 0.5 mM: 24 h (1440 min), read-out: Peptide remaining in human serum after 24 h
Method: Briefly, 0.5 mL each of human serum (Sigma-Aldrich, St. Louis, MO, USA) and peptide (1 mM in water) were mixed and incubated for 24 h at 37 °C with stirring. Aliquots (0.1 mL) were taken at 0, 1, 5, 10, 30, 120, 360 and 1440 min and treated with 20 μL of trichloroacetic acid (15% (v/v) in water). The suspension was centrifuged for 30 min at 4 °C and 13,000 rpm, and the supernatant was analyzed by HPLC as described above.

[3] = system: Pseudomonas sp. (ATCC15915); experiment: Minimal inhibitory concentration (MIC), broth microdilution; format: cell-based; settings: Mueller Hinton Broth, 5 × 10^5 CFU/mL, 0.04% BSA and 0.002% acetic acid, 20–22 h at 37 °C, duplicate
Method: (§1) Assays were performed on three Gram-negative bacteria: E. coli (BW25113, Coli Genetic Stock Center), A. baumannii (ATCC 15308, CECT, Valencia, Spain), and Pseudomonas sp. (ATCC15915, CECT). The minimal inhibitory concentration (MIC) of each peptide was determined as described by Wiegand et al.. Peptide stocks in water were added to polypropylene 96-well plates (Greiner, Frickenhausen, Germany) and serially diluted from 100 to 0.2 μM. Fresh bacteria were incubated at 37 °C in Mueller Hinton Broth (MHB, Condalab, Torrejón de Ardoz, Spain) up to exponential growth and diluted to a final inoculum of 5 × 10^5 CFU/mL. BSA and acetic acid at 0.04% (w/v) and 0.002% (v/v) final concentration, respectively, were added to avoid peptide self-aggregation. Plates were incubated for 20–22 h at 37 °C. Each peptide was tested in duplicate. MIC values were the lowest peptide concentration where bacterial growth was not detected.

[4] = system: A. baumannii (ATCC 15308); experiment: as above; format: cell-based; settings: Mueller Hinton Broth, 5 × 10^5 CFU/mL, 0.04% BSA and 0.002% acetic acid, 20–22 h at 37 °C, duplicate
Method: as §1

[5] = system: E. coli (BW25113); experiment: as above; format: cell-based; settings: Mueller Hinton Broth, 5 × 10^5 CFU/mL, 0.04% BSA and 0.002% acetic acid, 20–22 h at 37 °C, duplicate
Method: as §1

Row | SMILES | IC50 (cell viability) human fibroblast 1BR3G [1] | remaining at 24 h, 0.5 mM [2] [%] | MIC Pseudomonas sp. [3] [µM] | MIC A. baumannii [4] [µM] | MIC E. coli [5] [µM] | half-life at 0.5 mM ([2]; aliquots 0–1440 min, read-out: t1/2 in human serum) [h]
1 | CC[C@@H](C)[C@@H](NC(=O)[C@@H](CCCCN)NC(=O)[C@@H](CCCCN)NC(=O)[C@@H](CC(C)C)NC(=O)[C@@H](CCCNC(=N)N)NC(=O)[C@@H](CCCCN)NC(=O)[C@@H](CCCCN)NC(=O)[C@H](NC(=O)[C@@H](CO)NC(=O)[C@@H](CCCCN)NC(=O)[C@@H](CCCCN)NC(=O)[C@H](NC(=O)[C@@H](CCCCN)NC(=O)[C@@H](CCCCN)NC(=O)[C@@H](Cc1ccccc1)NC(=O)[C@@H](Cc1ccccc1)NC(=O)[C@@H](CCCCN)NC(=O)[C@@H](CCCCN)NC(=O)[C@@H](Cc1ccccc1)NC(=O)[C@@H](CCCNC(=N)N)NC(=O)[C@H](N)CCCCN)C(C)C)C(C)C)C(=O)N[C@H](Cc1ccccc1)C(=O)N[C@H](CCCCN)C(=O)N[C@H](CCCCN)C(=O)N1CCC[C@@H]1C(=O)N[C@H](CCSC)C(=O)N[C@@H](C(=O)N[C@@H](C(=O)NCC(=O)N[C@@H](C(=O)N[C@@H](C(=O)N[C@@H](C(=O)N1CCC[C@@H]1C(=O)N[C@H](Cc1ccccc1)C(N)=O)[C@H](C)CC)[C@H](C)O)C(C)C)[C@H](C)CC)C(C)C [Ctn enantio] (H-[dK][dR][dF][dK][dK][dF][dF][dK][dK][dV][dK][dK][dS][dV][dK][dK][dR][dL][dK][dK][dI][dF][dK][dK][dP][dM][dV][dI]G[dV][dT][dI][dP][dF]-NH2) | 2.7 µM | 30 | 0.39 (≈ 1.62 µg/mL) | 1.56 (≈ 6.48 µg/mL) | 0.39 (≈ 1.62 µg/mL) | 
2 | CC[C@H](C)[C@H](NC(=O)CNC(=O)[C@@H](NC(=O)[C@@H](NC(=O)[C@@H](NC(=O)[C@@H]1CCCN1C(=O)[C@@H](N)Cc1ccccc1)[C@@H](C)CC)[C@@H](C)O)C(C)C)C(=O)N[C@H](C(=O)N[C@@H](CCSC)C(=O)N1CCC[C@H]1C(=O)N[C@@H](CCCCN)C(=O)N[C@@H](CCCCN)C(=O)N[C@@H](Cc1ccccc1)C(=O)N[C@H](C(=O)N[C@@H](CCCCN)C(=O)N[C@@H](CCCCN)C(=O)N[C@@H](CC(C)C)C(=O)N[C@@H](CCCNC(=N)N)C(=O)N[C@@H](CCCCN)C(=O)N[C@@H](CCCCN)C(=O)N[C@H](C(=O)N[C@@H](CO)C(=O)N[C@@H](CCCCN)C(=O)N[C@@H](CCCCN)C(=O)N[C@H](C(=O)N[C@@H](CCCCN)C(=O)N[C@@H](CCCCN)C(=O)N[C@@H](Cc1ccccc1)C(=O)N[C@@H](Cc1ccccc1)C(=O)N[C@@H](CCCCN)C(=O)N[C@@H](CCCCN)C(=O)N[C@@H](Cc1ccccc1)C(=O)N[C@@H](CCCNC(=N)N)C(=O)N[C@@H](CCCCN)C(N)=O)C(C)C)C(C)C)[C@@H](C)CC)C(C)C [Ctn retro] (H-FPITVGIVMPKKFIKKLRKKVSKKVKKFFKKFRK-NH2) |  |  | 1.56 (≈ 6.48 µg/mL) | 1.56 (≈ 6.48 µg/mL) | 0.78 (≈ 3.24 µg/mL) | 
3 | CC[C@@H](C)[C@@H](NC(=O)CNC(=O)[C@H](NC(=O)[C@H](NC(=O)[C@H](NC(=O)[C@H]1CCCN1C(=O)[C@H](N)Cc1ccccc1)[C@H](C)CC)[C@H](C)O)C(C)C)C(=O)N[C@@H](C(=O)N[C@H](CCSC)C(=O)N1CCC[C@@H]1C(=O)N[C@H](CCCCN)C(=O)N[C@H](CCCCN)C(=O)N[C@H](Cc1ccccc1)C(=O)N[C@@H](C(=O)N[C@H](CCCCN)C(=O)N[C@H](CCCCN)C(=O)N[C@H](CC(C)C)C(=O)N[C@H](CCCNC(=N)N)C(=O)N[C@H](CCCCN)C(=O)N[C@H](CCCCN)C(=O)N[C@@H](C(=O)N[C@H](CO)C(=O)N[C@H](CCCCN)C(=O)N[C@H](CCCCN)C(=O)N[C@@H](C(=O)N[C@H](CCCCN)C(=O)N[C@H](CCCCN)C(=O)N[C@H](Cc1ccccc1)C(=O)N[C@H](Cc1ccccc1)C(=O)N[C@H](CCCCN)C(=O)N[C@H](CCCCN)C(=O)N[C@H](Cc1ccccc1)C(=O)N[C@H](CCCNC(=N)N)C(=O)N[C@H](CCCCN)C(N)=O)C(C)C)C(C)C)[C@H](C)CC)C(C)C [Ctn retroenantio] (H-[dF][dP][dI][dT][dV]G[dI][dV][dM][dP][dK][dK][dF][dI][dK][dK][dL][dR][dK][dK][dV][dS][dK][dK][dV][dK][dK][dF][dF][dK][dK][dF][dR][dK]-NH2) | 4.3 µM | 40 | 0.78 (≈ 3.24 µg/mL) | 1.56 (≈ 6.48 µg/mL) | 0.78 (≈ 3.24 µg/mL) | 
4 | CC[C@@H](C)[C@@H](NC(=O)[C@@H](CCCCN)NC(=O)[C@@H](CCCCN)NC(=O)[C@@H](CC(C)C)NC(=O)[C@@H](CCCNC(=N)N)NC(=O)[C@@H](CCCCN)NC(=O)[C@H](N)CCCCN)C(=O)N[C@H](Cc1ccccc1)C(=O)N[C@H](CCCCN)C(=O)N[C@H](CCCCN)C(=O)N1CCC[C@@H]1C(=O)N[C@H](CCSC)C(=O)N[C@@H](C(=O)N[C@@H](C(=O)NCC(=O)N[C@@H](C(=O)N[C@@H](C(=O)N[C@@H](C(=O)N1CCC[C@@H]1C(=O)N[C@H](Cc1ccccc1)C(N)=O)[C@H](C)CC)[C@H](C)O)C(C)C)[C@H](C)CC)C(C)C [Ctn[15-34] enantio] (H-[dK][dK][dR][dL][dK][dK][dI][dF][dK][dK][dP][dM][dV][dI]G[dV][dT][dI][dP][dF]-NH2) |  |  | 0.1 (≈ 0.237 µg/mL) | 0.39 (≈ 0.925 µg/mL) | 0.16 (≈ 0.379 µg/mL) | 
5 | CC[C@H](C)[C@H](NC(=O)CNC(=O)[C@@H](NC(=O)[C@@H](NC(=O)[C@@H](NC(=O)[C@@H]1CCCN1C(=O)[C@@H](N)Cc1ccccc1)[C@@H](C)CC)[C@@H](C)O)C(C)C)C(=O)N[C@H](C(=O)N[C@@H](CCSC)C(=O)N1CCC[C@H]1C(=O)N[C@@H](CCCCN)C(=O)N[C@@H](CCCCN)C(=O)N[C@@H](Cc1ccccc1)C(=O)N[C@H](C(=O)N[C@@H](CCCCN)C(=O)N[C@@H](CCCCN)C(=O)N[C@@H](CC(C)C)C(=O)N[C@@H](CCCNC(=N)N)C(=O)N[C@@H](CCCCN)C(=O)N[C@@H](CCCCN)C(N)=O)[C@@H](C)CC)C(C)C [Ctn[15-34] retro] (H-FPITVGIVMPKKFIKKLRKK-NH2) | ≈ 15.84 μM |  | <0.05 | 0.78 (≈ 1.85 µg/mL) | 0.16 (≈ 0.379 µg/mL) | 
6 | CC[C@@H](C)[C@@H](NC(=O)CNC(=O)[C@H](NC(=O)[C@H](NC(=O)[C@H](NC(=O)[C@H]1CCCN1C(=O)[C@H](N)Cc1ccccc1)[C@H](C)CC)[C@H](C)O)C(C)C)C(=O)N[C@@H](C(=O)N[C@H](CCSC)C(=O)N1CCC[C@@H]1C(=O)N[C@H](CCCCN)C(=O)N[C@H](CCCCN)C(=O)N[C@H](Cc1ccccc1)C(=O)N[C@@H](C(=O)N[C@H](CCCCN)C(=O)N[C@H](CCCCN)C(=O)N[C@H](CC(C)C)C(=O)N[C@H](CCCNC(=N)N)C(=O)N[C@H](CCCCN)C(=O)N[C@H](CCCCN)C(N)=O)[C@H](C)CC)C(C)C [Ctn[15-34] retroenantio] (H-[dF][dP][dI][dT][dV]G[dI][dV][dM][dP][dK][dK][dF][dI][dK][dK][dL][dR][dK][dK]-NH2) |  |  | 0.1 (≈ 0.237 µg/mL) | 0.39 (≈ 0.925 µg/mL) | 0.16 (≈ 0.379 µg/mL) | 15.3
